Measurements: patent US11773099B2, “Compounds and their methods of use” (Praxis Precision Medicines, Inc., priority 2019, dated 2023)

Molecular target: T1, human Nav1.6 (hNav1.6) (Homo sapiens, UniProt Q9UQD0)
T1 construct: expressed in transfected cells; host or cells: HEK-293 (G418 selection)
Assay: Modulation of late sodium current (INaL), PatchXpress electrophysiology
Format: cell-based
Details: HEK293; compound at 1 μM; HEK-293 cells expressing recombinant hNav1.6; late current evoked by 300 nM ATX-II; read-out: INaL v1.6 (1 μM, % Inhibition)
Procedure: Functional characterization of exemplary compounds to modulate INaL expressed by the Nav1.6 voltage-gated sodium channel was accomplished using the PatchXpress™ high throughput electrophysiology platform (Molecular Devices, Sunnyvale, Calif.). HEK-293 cells expressing recombinant, human Nav1.6 (hNav1.6) were grown in DMEM/high-glucose Dulbecco's modified, 10% FBS, 2 mM sodium pyruvate, 10 mM HEPES and 400 μg/mL G418. Cells were grown to 50%-80% confluency prior to harvesting. Trypsinized cells were washed, allowed to recover for 1 hour and then resuspended in extracellular recording solution at a concentration of 1×10^6 cells/ml. The onboard liquid handling facility of the PatchXpress was used for dispensing cells and applying test compounds. Nav late currents were evoked by the application of 300 nM ATX-II. INaL was evoked by depolarizing pulses to 0 mV for 200 ms from a non-inactivating holding potential (e.g., −120 mV) at a frequency of 0.1 Hz. INaL amplitude and stability were determined by analyzing the mean current amplitude over the final 20 ms of the test pulse. Following steady state block with exemplary compounds (e.g., as described herein), a Na^+ free solution containing an impermeant cation (e.g., Choline or NDMG) was added to confirm the identify of the sodium current. Percent steady-state inhibition of INaL was calculated as: [(INaL_compound)/(INaL_control)]*100, where INaL_compound and INaL_control represent INaL recorded in the presence or absence of compound, respectively.
Results from this assay relating to percent inhibition of INaL at hNav1.6 (measured using procedure similar to described above but using HEK-293 cells expressing recombinant, human Nav1.6 (hNav1.6) at 1 μM are summarized in Table 1 below. In this table, “A” indicates inhibition of less than 30%; “B” indicates inhibition of between about 30% to about 70%; and “C” indicates inhibition of greater than 70%.

T1 sequence (Q9UQD0 whole entry): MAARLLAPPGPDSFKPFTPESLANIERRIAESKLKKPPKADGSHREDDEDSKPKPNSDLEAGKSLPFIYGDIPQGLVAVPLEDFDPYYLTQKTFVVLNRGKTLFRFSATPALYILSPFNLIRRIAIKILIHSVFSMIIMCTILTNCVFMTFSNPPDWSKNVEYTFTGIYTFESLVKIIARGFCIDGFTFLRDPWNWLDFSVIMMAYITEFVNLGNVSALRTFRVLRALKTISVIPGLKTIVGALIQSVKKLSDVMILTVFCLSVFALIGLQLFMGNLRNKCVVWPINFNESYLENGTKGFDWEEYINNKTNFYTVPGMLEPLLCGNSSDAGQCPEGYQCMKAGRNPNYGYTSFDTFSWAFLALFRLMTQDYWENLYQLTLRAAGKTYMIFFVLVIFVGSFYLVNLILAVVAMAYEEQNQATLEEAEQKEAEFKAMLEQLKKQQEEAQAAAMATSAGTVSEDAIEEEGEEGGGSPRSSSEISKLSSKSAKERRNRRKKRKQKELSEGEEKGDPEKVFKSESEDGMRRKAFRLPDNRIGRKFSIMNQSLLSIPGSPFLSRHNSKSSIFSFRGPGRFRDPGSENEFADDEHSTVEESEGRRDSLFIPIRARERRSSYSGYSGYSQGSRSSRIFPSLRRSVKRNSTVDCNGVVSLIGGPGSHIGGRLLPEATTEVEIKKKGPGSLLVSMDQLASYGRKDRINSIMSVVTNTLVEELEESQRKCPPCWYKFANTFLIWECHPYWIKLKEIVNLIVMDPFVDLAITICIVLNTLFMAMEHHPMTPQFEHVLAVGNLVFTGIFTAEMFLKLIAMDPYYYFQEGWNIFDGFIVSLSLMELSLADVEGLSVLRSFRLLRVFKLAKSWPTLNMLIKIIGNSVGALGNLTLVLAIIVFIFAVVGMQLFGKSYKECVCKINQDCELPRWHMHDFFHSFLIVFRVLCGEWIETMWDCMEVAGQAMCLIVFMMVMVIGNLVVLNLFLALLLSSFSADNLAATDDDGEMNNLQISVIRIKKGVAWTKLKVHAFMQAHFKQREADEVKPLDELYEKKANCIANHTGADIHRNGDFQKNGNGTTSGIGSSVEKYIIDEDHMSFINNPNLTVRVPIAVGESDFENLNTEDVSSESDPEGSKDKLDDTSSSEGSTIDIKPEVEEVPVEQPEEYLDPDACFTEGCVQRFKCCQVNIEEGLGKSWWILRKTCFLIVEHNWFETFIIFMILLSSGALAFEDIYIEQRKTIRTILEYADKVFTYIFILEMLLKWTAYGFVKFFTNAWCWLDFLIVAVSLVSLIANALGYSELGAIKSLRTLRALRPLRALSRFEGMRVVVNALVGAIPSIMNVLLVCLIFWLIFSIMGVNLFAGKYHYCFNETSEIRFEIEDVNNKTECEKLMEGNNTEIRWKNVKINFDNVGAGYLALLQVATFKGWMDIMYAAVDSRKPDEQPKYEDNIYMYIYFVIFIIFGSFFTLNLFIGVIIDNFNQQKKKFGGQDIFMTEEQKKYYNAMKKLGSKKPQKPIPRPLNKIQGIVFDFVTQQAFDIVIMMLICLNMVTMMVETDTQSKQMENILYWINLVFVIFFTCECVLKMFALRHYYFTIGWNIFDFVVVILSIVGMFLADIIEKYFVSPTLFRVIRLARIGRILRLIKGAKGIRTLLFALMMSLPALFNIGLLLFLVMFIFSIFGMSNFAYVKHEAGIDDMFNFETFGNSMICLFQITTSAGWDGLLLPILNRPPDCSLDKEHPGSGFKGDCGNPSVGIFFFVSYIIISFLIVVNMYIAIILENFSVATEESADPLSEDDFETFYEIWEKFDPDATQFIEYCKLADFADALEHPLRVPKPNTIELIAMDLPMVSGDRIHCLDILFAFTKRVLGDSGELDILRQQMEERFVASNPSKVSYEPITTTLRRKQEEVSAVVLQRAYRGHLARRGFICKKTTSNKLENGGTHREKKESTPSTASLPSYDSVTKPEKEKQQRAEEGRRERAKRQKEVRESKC

Compound | inhibition at 1 µM
FC(F)(F)Oc1ccc(-c2ccn3cncc3c2)cc1 [Compound 1] | < 30%
FC(F)(F)Oc1ccc(-c2ccn3cnc(C(F)(F)F)c3c2)cc1 [Compound 2] | < 30%
FC(F)(F)Oc1ccc(-c2ccn3cnc(C(F)(F)F)c3n2)cc1 [Compound 4] | 30 to 70%
Cc1cc(OC(F)(F)F)ccc1-c1cnn2cncc2c1 [Compound 5, 3-[2-methyl-4-(trifluoromethoxy)phenyl]imidazo[1,5-b]pyridazine] | < 30%
Cc1cc(OC(F)(F)F)ccc1-c1cnn2cnc(C(F)(F)F)c2c1 [Compound 6] | < 30%
FC(F)(F)Oc1ccc(-c2cc3cncn3cn2)cc1 [Compound 7, 7-[4-(trifluoromethoxy)phenyl]imidazo[1,5-c]pyrimidine] | < 30%
FC(F)(F)Oc1ccc(-c2cc3c(C(F)(F)F)ncn3cn2)cc1 [Compound 8] | > 70%
Cc1cc(OC(F)(F)F)ccc1-c1cc2cncn2cn1 [Compound 9, 7-[2-methyl-4-(trifluoromethoxy)phenyl]imidazo[1,5-c]pyrimidine] | < 30%
Fc1cc(-c2cc3cncn3cn2)cnc1OCC(F)(F)F [Compound 10, 7-[5-fluoro-6-(2,2,2-trifluoroethoxy)-3-pyridyl]imidazo[1,5-c]pyrimidine] | < 30%
C[C@H](Oc1ncc(-c2cc3cncn3cn2)cc1F)C(F)(F)F [Compound 11, 7-[5-fluoro-6-[(1S)-2,2,2-trifluoro-1-methyl-ethoxy]-3-pyridyl]imidazo[1,5-c]pyrimidine] | 30 to 70%
C[C@@H](Oc1ncc(-c2cc3cncn3cn2)cc1F)C(F)(F)F [Compound 12, 7-[5-fluoro-6-[(1R)-2,2,2-trifluoro-1-methyl-ethoxy]-3-pyridyl]imidazo[1,5-c]pyrimidine] | < 30%
CC(C)(Oc1ncc(-c2cc3cncn3cn2)cc1F)C(F)(F)F [Compound 13, 7-[5-fluoro-6-(2,2,2-trifluoro-1,1-dimethyl-ethoxy)-3-pyridyl]imidazo[1,5-c]pyrimidine] | 30 to 70%
Cc1cc(OC(F)(F)F)ccc1-c1cc2c(C(F)(F)F)ncn2cn1 [Compound 14] | > 70%
C[C@@H](Oc1ncc(-c2cc3c(C(F)(F)F)ncn3cn2)cc1F)C(F)(F)F [Compound 15] | 30 to 70%
Fc1cc(-c2cc3c(C(F)(F)F)ncn3cn2)cnc1OCC(F)(F)F [Compound 16] | < 30%
CC(C)(Oc1ncc(-c2cc3c(C(F)(F)F)ncn3cn2)cc1F)C(F)(F)F [Compound 17] | 30 to 70%
C[C@H](Oc1ncc(-c2cc3c(C(F)(F)F)ncn3cn2)cc1F)C(F)(F)F [Compound 18] | 30 to 70%
C[C@@H](Oc1ncc(-c2cc3c(C(F)F)ncn3cn2)cc1F)C(F)(F)F [Compound 19] | < 30%
C[C@H](Oc1ncc(-c2cc3c(C(F)F)ncn3cn2)cc1F)C(F)(F)F [Compound 20] | < 30%
CC(C)(Oc1ncc(-c2cc3c(C(F)F)ncn3cn2)cc1F)C(F)(F)F [Compound 21] | 30 to 70%
Fc1cc(-c2cc3c(C(F)F)ncn3cn2)cnc1OCC(F)(F)F [Compound 22] | < 30%
Cc1cc(OC(F)(F)F)ccc1-c1cc2c(C(F)F)ncn2cn1 [Compound 23] | < 30%
COCc1ncn2cnc(-c3cnc(O[C@@H](C)C(F)(F)F)c(F)c3)cc12 [Compound 24] | < 30%
COCc1ncn2cnc(-c3cnc(O[C@H](C)C(F)(F)F)c(F)c3)cc12 [Compound 25] | > 70%
COCc1ncn2cnc(-c3ccc(OC(F)(F)F)cc3)cc12 [Compound 26] | 30 to 70%
COCc1ncn2cnc(-c3cnc(OC(C)(C)C(F)(F)F)c(F)c3)cc12 [Compound 27] | < 30%
